The target in one assay is human A2A receptors (Homo sapiens (Human), UniProt P29274). Nature of the assay: A2A antagonism in cAMP cell-based assay (LANCE cAMP, HEK293). The following applies: HEK293 cells expressing human A2A receptor. The method in brief: (§1)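 HEK293 cells expressing human A2A or A2B, in HBSS/5 mM HEPES/200 nM rolipram, were preincubated with compound (0.5–10,000 nM, 0.25% DMSO) 30 min at 37° C. Adenosine was then added from 300 nM (A2A) or 600 nM (A2B) solution for 30 min.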

The next assay deals with human A2B receptors (Homo sapiens (Human), UniProt P29275). Nature of the assay: A2B antagonism in cAMP cell-based assay (LANCE cAMP, HEK293). The following applies: HEK293 cells expressing human A2B receptor. Summed up: as §1
Chain of human A2B receptors (P29275 whole entry): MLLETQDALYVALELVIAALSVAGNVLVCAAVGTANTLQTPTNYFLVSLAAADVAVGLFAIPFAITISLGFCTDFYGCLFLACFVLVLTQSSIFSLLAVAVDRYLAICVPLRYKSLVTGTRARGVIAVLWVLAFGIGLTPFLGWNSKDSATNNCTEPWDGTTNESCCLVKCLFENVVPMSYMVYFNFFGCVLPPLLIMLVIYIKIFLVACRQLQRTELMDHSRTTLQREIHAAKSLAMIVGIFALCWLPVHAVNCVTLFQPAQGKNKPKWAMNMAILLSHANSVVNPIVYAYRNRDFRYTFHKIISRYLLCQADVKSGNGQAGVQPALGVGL
Background: In TR-FRET formats the signal depends on donor and acceptor labels being close together.

Results on 17 molecules are retold here after patent publication US11312719B2, “9-substituted amino triazolo quinazoline derivatives as adenosine receptor antagonists, pharmaceutical compositions and their use” (Merck Sharp & Dohme Corp., priority 2018, dated 2022).

pIC50: −log10 of the molar value.

What is called pIC50 is the negative decadic logarithm of the IC50, by convention in mol/L. A lower pIC50 goes with a large IC50.

Chain of human A2A receptors (P29274 whole entry): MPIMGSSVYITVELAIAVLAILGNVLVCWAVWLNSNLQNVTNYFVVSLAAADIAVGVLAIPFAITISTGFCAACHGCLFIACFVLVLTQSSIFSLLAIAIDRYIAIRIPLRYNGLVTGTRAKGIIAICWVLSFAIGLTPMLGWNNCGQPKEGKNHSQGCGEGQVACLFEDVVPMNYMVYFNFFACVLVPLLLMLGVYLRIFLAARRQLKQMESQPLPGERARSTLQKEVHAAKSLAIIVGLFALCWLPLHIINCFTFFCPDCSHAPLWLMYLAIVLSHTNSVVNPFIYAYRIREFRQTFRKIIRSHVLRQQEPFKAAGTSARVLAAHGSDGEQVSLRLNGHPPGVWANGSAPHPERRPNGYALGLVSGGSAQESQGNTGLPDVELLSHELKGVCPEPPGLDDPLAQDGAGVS

Consider `CC1CC(c2nc3c4cc(F)cc(F)c4nc(N)n3n2)CN(c2cnn(CC(C)(C)O)c2)C1` (single isomer, unassigned) [Example 163, 1-(4-((3R,5S or 3S,5R)-3-(5-amino-7,9-difluoro-[1,2,4]triazolo[1,5-c]quinazolin-2-yl)-5-methylpiperidin-1-yl)-1H-pyrazol-1-yl)-2-methylpropan-2-ol], for which the pIC50 against human A2A receptors is 7.44; against human A2B receptors, 5.28.
On the same counts, the results for `COc1cc2nc(N)n3nc(C4CCC(C)N(c5cnn(C(C)(C)C(C)O)c5)C4)nc3c2cc1F` (single isomer, unassigned) [Example 264, (R or S)-3-(4-((2S,5R or 2R,5S)-5-(5-amino-9-fluoro-8-methoxy-[1,2,4]triazolo[1,5-c]quinazolin-2-yl)-2-methylpiperidin-1-yl)-1H-pyrazol-1-yl)-3-methylbutan-2-ol] are 8.52 and 7.84.
Turning to `COc1cc2nc(N)n3nc([C@@H]4CCCN(c5cnn(C(C)(C)C(C)O)c5)C4)nc3c2cc1F` (single isomer, unassigned) [Example 243, (S or R)-3-(4-((R)-3-(5-amino-9-fluoro-8-methoxy-[1,2,4]triazolo[1,5-c]quinazolin-2-yl)piperidin-1-yl)-1H-pyrazol-1-yl)-3-methylbutan-2-ol], the pIC50 was 8.59 on human A2A receptors and 7.29 at human A2B receptors.
With `CC(O)C(C)n1cc(N2CC(c3nc4c5cc(F)cc(F)c5nc(N)n4n3)CCC2C)cn1` (single isomer, unassigned) [Example 233, (2R,3R or 2S,3S)-3-(4-((2S,5R or 2R,5S)-5-(5-amino-7,9-difluoro-[1,2,4]triazolo[1,5-c]quinazolin-2-yl)-2-methylpiperidin-1-yl)-1H-pyrazol-1-yl)butan-2-ol], the figures for the pIC50 against human A2A receptors and against human A2B receptors were 9.15 and 8.25, respectively.
Consider `Cc1c(N2CC(C)CC(c3nc4c5cc(F)cc(F)c5nc(N)n4n3)C2)cnn1C(C)C(C)O` (single isomer, unassigned) [Example 216, (2S,3S or 2R,3R)-3-(4-((3R,5S or 3S,5R)-3-(5-amino-7,9-difluoro-[1,2,4]triazolo[1,5-c]quinazolin-2-yl)-5-methylpiperidin-1-yl)-5-methyl-1H-pyrazol-1-yl)butan-2-ol], for which the pIC50 at human A2A receptors is 9.00; at human A2B receptors, 6.80.
Turning to `COc1cc2nc(N)n3nc([C@@H]4CCCN(c5cnn(C(C)C(C)O)c5)C4)nc3c2cc1F` (single isomer, unassigned) [Example 199, (2R,3S or 2S,3R)-3-(4-((R)-3-(5-amino-9-fluoro-8-methoxy-[1,2,4]triazolo[1,5-c]quinazolin-2-yl)piperidin-1-yl)-1H-pyrazol-1-yl)butan-2-ol], the pIC50 at human A2A receptors is 8.60; against human A2B receptors, 7.01.
On the same counts, the results for `CC1CC(c2nc3c4cc(F)cc(F)c4nc(N)n3n2)CN(c2cnn(CC(C)(C)O)c2)C1` (single isomer, unassigned) [Example 181, 1-(4-((3S,5S or 3R,5R)-3-(5-amino-7,9-difluoro-[1,2,4]triazolo[1,5-c]quinazolin-2-yl)-5-methylpiperidin-1-yl)-1H-pyrazol-1-yl)-2-methylpropan-2-ol] are 7.80 and 5.29.
Consider `COc1cc2nc(N)n3nc([C@@H]4CCCN(c5cnn(C(C)(C)C(C)O)c5)C4)nc3c2cc1F` (single isomer, unassigned) [Example 242, (R or S)-3-(4-((R)-3-(5-amino-9-fluoro-8-methoxy-[1,2,4]triazolo[1,5-c]quinazolin-2-yl)piperidin-1-yl)-1H-pyrazol-1-yl)-3-methylbutan-2-ol], for which the negative logarithm of the IC50 (pIC50) against human A2A receptors was 8.70; on human A2B receptors, 7.46.
`COc1cc2nc(N)n3nc(C4CC(C)CN(c5cn(C(C)(C)CO)nc5C)C4)nc3c2cc1F` (single isomer, unassigned) [Example 170, 2-(4-((3S,5R or 3R,5S)-3-(5-amino-9-fluoro-8-methoxy-[1,2,4]triazolo[1,5-c]quinazolin-2-yl)-5-methylpiperidin-1-yl)-3-methyl-1H-pyrazol-1-yl)-2-methylpropan-1-ol]: the pIC50 is 9.10 on human A2A receptors and 7.85 against human A2B receptors.
On the same counts, the results for `COc1cc(F)cc2c1nc(N)n1nc([C@@H]3CCCN(c4cnn(C(C)C(C)O)c4)C3)nc21` (single isomer, unassigned) [Example 185, (2S,3S or 2R,3R)-3-(4-((R)-3-(5-amino-9-fluoro-7-methoxy-[1,2,4]triazolo[1,5-c]quinazolin-2-yl)piperidin-1-yl)-1H-pyrazol-1-yl)butan-2-ol] are 8.96 and 7.30.
As to `COc1cc2nc(N)n3nc(C4CC(C)CN(c5cnn(CC(C)(C)O)c5C)C4)nc3c2cc1F` (single isomer, unassigned) [Example 274, 1-((4-((3R,5S or 3S,5R)-5-(5-amino-9-fluoro-8-methoxy-[1,2,4]triazolo[1,5-c]quinazolin-2-yl)-5-methylpiperidin-1-yl)-5-methyl-1H-pyrazol-1-yl)-2-methylpropan-2-ol], the pIC50 against human A2A receptors was 9.15; against human A2B receptors, 7.15.
The corresponding values for `COc1cc(F)cc2c1nc(N)n1nc(C3CC(C)CN(c4cn(C(C)(C)C(C)O)nc4C)C3)nc21` (single isomer, unassigned) [Example 206, (S or R)-3-(4-((3R,5S or 3S,5R)-3-(5-amino-9-fluoro-7-methoxy-[1,2,4]triazolo[1,5-c]quinazolin-2-yl)-5-methylpiperidin-1-yl)-3-methyl-1H-pyrazol-1-yl)-3-methylbutan-2-ol] are 7.89 and 5.37.
On the same counts, the results for “(S or R)-1-(4-((2S,5R or 2R5S)-5-(5-amino-9-fluoro- 8-methoxy-[1,2,4]triazolo[1,5-c]quinazolin-2-yl)-2- methylpiperidin-1-yl)-1H-pyrazol-1-yl)propan-2-ol [Example 241]” are 8.89 and 7.66.
The corresponding values for `Cc1nn(C(C)C(C)O)cc1N1CCC[C@@H](c2nc3c4cc(F)cc(F)c4nc(N)n3n2)C1` (single isomer, unassigned) [Example 192, (2R,3R or 2S,3S)-3-(4-((R)-3-(5-amino-7,9-difluoro-[1,2,4]triazolo[1,5-c]quinazolin-2-yl)piperidin-1-yl)-3-methyl-1H-pyrazol-1-yl)butan-2-ol] are 9.10 and 7.14.
`CC(O)C(C)n1cc(N2CCC[C@@H](c3nc4c5cc(F)cc(F)c5nc(N)n4n3)C2)cn1` (single isomer, unassigned) [Example 203, (2R,3S or 2S,3R)-3-(4-((R)-3-(5-amino-7,9-difluoro-[1,2,4]triazolo[1,5-c]quinazolin-2-yl)piperidin-1-yl)-1H-pyrazol-1-yl)butan-2-ol]: the pIC50 was 8.11 on human A2A receptors and 7.27 on human A2B receptors.
The corresponding values for `COc1cc2nc(N)n3nc(C4CCC(C)N(c5cnn(CC(C)(O)CO)c5)C4)nc3c2cc1F` (single isomer, unassigned) [Example 254] are 8.82 and 8.00.
The corresponding values for `COc1cc2nc(N)n3nc(C4CC(C)CN(c5cnn(C(C)(C)CO)c5)C4)nc3c2cc1F` (single isomer, unassigned) [Example 171, 2-(4-((3R,5S or 3S,5R)-3-(5-amino-9-fluoro-8-methoxy-[1,2,4]triazolo[1,5-c]quinazolin-2-yl)-5-methylpiperidin-1-yl)-1H-pyrazol-1-yl)-2-methylpropan-1-ol] are 8.92 and 7.95.
